Results as given in patent US20230242499A1, “COMPOUND OR SALT THEREOF, COMPOSITION, CHEMILU[…], METHOD FOR MEASURING CHEMILU[…], REAGENT, REAGENT KIT, AND METHOD FOR ASSAYING ANALYTE” (SYSMEX CORPORATION, priority 2022, published 2023).

What was measured:
[1] = Test Example 3: maximum emission wavelength by spectrofluorometer; format: physicochemical; settings: after several hours under the conditions of Test Example 1; spectrofluorometer F-7000
Procedure: After a lapse of several hours under the conditions of Test Example 1, the samples were measured with use of a spectrofluorometer F-7000 (from Hitachi High-Tech Science Corporation), to find maximum emission wavelength.

alkaline phosphatase = assay: Test Example 2: chemiluminescence intensity versus amount of alkaline phosphatase, limit of detection; format: biochemical; settings: 42° C., 5 minutes incubation
Procedure: A solution of 1,2-dioxetane derivative (Examples 1 to 4) in dimethyl sulfoxide was added to 155 μL of the reaction liquid, and the mixture was kept at 42° C. for one hour. Twenty μL of a solution containing alkaline phosphatase was added, the mixture was incubated at 42° C. for 5 minutes, and then the chemiluminescence intensity was measured. The reaction liquid used herein was a 2: 1 mixture of a buffer solution (pH 9.6) that contains magnesium chloride and Sapphire-II™ Enhancer (from Thermo Fischer Scientific Inc.), and HISCL R4 reagent (from Sysmex Corporation). In Example 3, two types of sample were prepared, a sample (S(+)) with Sapphire-II™ Enhancer added thereto, and a sample […] without such additive.

[2] = buffer pH 9.6 with magnesium chloride and Sapphire-II Enhancer added (S (+)), HISCL R4 reagent

Row | Compound | Maximum emission wavelength (nm) [1] [nm] | LOD (zmol) (alkaline phosphatase; [2]) | LOD (zmol) (alkaline phosphatase; Sapphire-II Enhancer not added (S (−)))
1 | COC1(c2ccc(C#Cc3ccc(C(=O)O)cc3)c(OP(=O)(O)O)c2)OOC12C1CC3CC2CC(Cl)(C3)C1 (stereo not drawn) [Example 1] | 498 | 10 | –
2 | C#Cc1ccc(C2(OC)OOC23C2CC4CC3CC(Cl)(C4)C2)cc1OP(=O)(O)O (stereo not drawn) [Example 2] | 468 | 4 | –
3 | COC1(c2ccc(C#CC(=O)O)c(OP(=O)(O)O)c2)OOC12C1CC3CC2CC(Cl)(C3)C1 (stereo not drawn) [Example 3] | 475 | 7 | 1
4 | COC1(c2ccc(-c3ccc(C(=O)O)cc3)c(OP(=O)(O)O)c2)OOC12C1CC3CC2CC(Cl)(C3)C1 (stereo not drawn) [Example 4] | 493 | 100 | –
